The target in one test is T1, h P2X3 (Homo sapiens, UniProt P56373).
T1 sequence (P56373 1-397): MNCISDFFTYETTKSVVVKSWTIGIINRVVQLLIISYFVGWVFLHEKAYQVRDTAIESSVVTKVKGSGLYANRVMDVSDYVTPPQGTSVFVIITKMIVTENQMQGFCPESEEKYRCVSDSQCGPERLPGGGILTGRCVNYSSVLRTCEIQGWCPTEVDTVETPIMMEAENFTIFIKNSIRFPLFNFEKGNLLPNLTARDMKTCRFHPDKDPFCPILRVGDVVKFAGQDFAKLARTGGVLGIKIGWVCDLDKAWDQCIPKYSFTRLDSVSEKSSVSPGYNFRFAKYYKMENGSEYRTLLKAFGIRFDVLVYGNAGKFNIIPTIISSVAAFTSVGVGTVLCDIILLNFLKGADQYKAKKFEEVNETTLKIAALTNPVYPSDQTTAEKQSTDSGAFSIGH
Put plainly: In vitro electrophysiology assay for P2X3 (automated whole-cell patch clamp, Sophion Qube). It counts as cell-based. As to conditions: Table 6; range of activity; inhibition of P2X3 current, agonist α,β-MeATP (800 nM). The protocol:
Pharmacological Activity of the Compounds of the Invention In Vitro Electrophysiology Assay for P2X3
Cells expressing P2X3 receptors were grown according to standard practice and maintained at 37° C. in a 5% humidified CO2 atmosphere. The cells were seeded into T175 flask 2 days prior to the day of the assay and dissociated from the flasks using TrypLE when grown to confluence of 80-90%. The dissociated cells were resuspended in serum free media at a cell density of 3×10^6 cells/ml and loaded onto the Sophion Qube automated patch-clamp system. The extracellular assay buffer contained 145 mM NaCl, 4 mM KCl, 2 mM CaCl2), 1 mM MgCl2, 10 mM HEPES, and 10 mM glucose at pH 7.4. The intracellular assay solution contained 140 mM CsF, 10 mM NaCl, 10 mM EGTA, 10 mM HEPES at pH 7.2. Agonist stock solutions were prepared in H2O and diluted in bath solution prior to use. All antagonists were prepared as 10 mM stock solutions in DMSO and diluted in bath solution prior to use. All experiments were performed under the whole-cell patch clamp configuration at room temperature with 384 individual cells being voltage clamped at −60 mV simultaneously on the Sophion Qube instrument. Two baseline responses were established with the application of α,β-MeATP (800 nM), with the subsequent agonist applications being washed out using extracellular assay buffer containing 0.5 U/ml apyrase. Following the second agonist application, antagonist was incubated in the absence of α,β-MeATP for 10 minutes. After antagonist preincubation, 800 nM α,β-MeATP and antagonist were co-administered to determine the inhibitory effect of the antagonist. One concentration of an antagonist was assessed against a single cell, with different concentrations of the antagonist applied to other cells on the 384 recording substrate. The control P2X3 current amplitude was taken from the peak current amplitude from the second agonist response prior to preincubation with antagonist. The peak P2X3 current amplitude in the presence of antagonist was used to calculate the inhibitory effect at each concentration of the antagonist according to the following equation: […]
Concentration-response curves were constructed from ten different concentrations with each concentration of antagonist tested on at least two individual cells. The concentration of the antagonist to inhibit P2X3 current by 50% (IC50) was determined by fitting the data with the following equation: […]
Where ‘a’ is minimum response, ‘b’ is maximum response, ‘c’ is IC50 and ‘d’ is Hill slope.
The results for individual compounds are provided below in Table 6 and are expressed as range of activity.
The activity of the comparative examples A and B have been tested in the in vitro Electrophysiology Assay for P2X3 as described above.
On the technique in general: In patch-clamp work, channel activity is measured electrically.
On to `Cc1nnc([C@@H](C)Nc2ncnc3c(S(=O)(=O)N4CCOCC4)cc(-c4ccc(F)cc4)cc23)s1` (racemic) [Example 10, (Rac)-6-(4-fluorophenyl)-N-(1-(5-methyl-1,3,4-thiadiazol-2-yl)ethyl)-8-(morpholinosulfonyl)quinazolin-4-amine], for which the IC50 (commonly the point on the concentration scale where inhibition reaches its midpoint) is below 316 nM.
The same measure, in the same setting: as for `Cc1cnc(-c2cc(OC3CCOCC3)c3ncnc(NC(C)c4ccc(C)nn4)c3c2)nc1` (single isomer, unassigned) [Example 29, N-[1-(6-methylpyridazin-3-yl)ethyl]-6-(5-methylpyrimidin-2-yl)-8-tetrahydropyran-4-yloxy-quinazolin-4-amine], the figure is 316 to 3160 nM.
`Cc1ccc(-c2cc(OC3CCOCC3)c3ncnc(NC(C)c4nnc(C)s4)c3c2)nc1` (single isomer, unassigned) [Example 83, 6-(5-methyl-2-pyridyl)-N-[1-(5-methyl-1,3,4-thiadiazol-2-yl)ethyl]-8-tetrahydropyran-4-yloxy-quinazolin-4-amine] gave a half-inhibitory concentration (IC50) of 316 to 3160 nM.
As for `Cc1ccc(-c2cc(OC3CCOCC3)c3ncnc(NC(C)c4nnc(C)s4)c3c2)nc1` (single isomer, unassigned) [Example 84, 6-(5-methyl-2-pyridyl)-N-[1-(5-methyl-1,3,4-thiadiazol-2-yl)ethyl]-8-tetrahydropyran-4-yloxy-quinazolin-4-amine], the 50% inhibitory concentration (IC50) is below 316 nM.
Molecule `Cc1noc(C(C)Nc2ncnc3c(OC4CCOCC4)cc(-c4ccc(F)cn4)cc23)n1` (single isomer, unassigned) [Example 85, 6-(5-fluoro-2-pyridyl)-N-[1-(3-methyl-1,2,4-oxadiazol-5-yl)ethyl]-8-tetrahydropyran-4-yloxy-quinazolin-4-amine] gave an IC50 below 316 nM.
Still for that read-out and setting: the same measure for `COc1cc(-c2ncc(C)cn2)cc2c(NC(C)c3ccc(C(F)(F)F)nn3)ncnc12` (single isomer, unassigned) [Example 120, 8-methoxy-6-(5-methylpyrimidin-2-yl)-N-[1-[6-(trifluoromethyl)pyridazin-3-yl]ethyl]quinazolin-4-amine]: below 316 nM.
On to `COc1cc(-c2ncc(C)cn2)cc2c(NC(C)c3nc(C)no3)ncnc12` (single isomer, unassigned) [Example 122, 8-Methoxy-N-[1-(3-methyl-1,2,4-oxadiazol-5-yl)ethyl]-6-(5-methylpyrimidin-2-yl)quinazolin-4-amine], for which the IC50 was 3160 to 31600 nM.
Same read-out and setting: the same measure for `COc1cc(-c2ncc(C)cn2)cc2c(NC(C)c3nnc(C)s3)ncnc12` (single isomer, unassigned) [Example 124, 8-Methoxy-6-(5-methylpyrimidin-2-yl)-N-[1-(5-methyl-1,3,4-thiadiazol-2-yl)ethyl]quinazolin-4-amine]: 316 to 3160 nM.
Molecule `COc1cc(-c2ncc(C)cn2)cc2c(NC(C)c3nnc(C)s3)ncnc12` (single isomer, unassigned) [Example 125, 8-Methoxy-6-(5-methylpyrimidin-2-yl)-N-[1-(5-methyl-1,3,4-thiadiazol-2-yl)ethyl]quinazolin-4-amine] displayed an IC50 below 316 nM.
Take `COc1cc(-c2ccc(C)cn2)cc2c(NC(C)c3nnc(C)s3)ncnc12` (single isomer, unassigned) [Example 126, 8-methoxy-6-(5-methyl-2-pyridyl)-N-[1-(5-methyl-1,3,4-thiadiazol-2-yl)ethyl]quinazolin-4-amine]: the IC50 was in the range of 3160 to 31600 nM.
On the same count and under the same terms, as for `COc1cc(-c2ncc(C)cn2)cc2c(NC(C)c3nnc(C)o3)ncnc12` (single isomer, unassigned) [Example 128], the figure is 3160 to 31600 nM.
The same measure, in the same setting: the same measure for `COc1cc(-c2ccc(C)cn2)cc2c(NC(C)c3nc(C)no3)ncnc12` (single isomer, unassigned) [Example 162, 8-Methoxy-N-[1-(3-methyl-1,2,4-oxadiazol-5-yl)ethyl]-6-(5-methyl-2-pyridyl)quinazolin-4-amine]: 316 to 3160 nM; for `COc1cc(-c2ncc(C)s2)cc2c(NC(C)c3nnc(C)s3)ncnc12` (single isomer, unassigned) [Example 164, 8-methoxy-N-(1-(5-methyl-1,3,4-thiadiazol-2-yl)ethyl)-6-(5-methylthiazol-2-yl)quinazolin-4-amine]: 316 to 3160 nM.
The molecule `COc1cc(-c2ncc(C)s2)cc2c(NC(C)c3nnc(C)s3)ncnc12` (single isomer, unassigned) [Example 165, 8-methoxy-N-(1-(5-methyl-1,3,4-thiadiazol-2-yl)ethyl)-6-(5-methylthiazol-2-yl)quinazolin-4-amine] registered a 50% inhibitory concentration (IC50) below 316 nM.
Still for that read-out and setting: as for `COc1cc(-c2ncc(C)cn2)cc2c(NC(C)c3nc(-c4ccncc4)no3)ncnc12` (single isomer, unassigned) [Example 167, 8-methoxy-6-(5-methylpyrimidin-2-yl)-N-(1-(3-(pyridin-4-yl)-1,2,4-oxadiazol-5-yl)ethyl)quinazolin-4-amine], the figure is 316 to 3160 nM; as for `COc1cc(-c2ccc(F)cn2)cc2c(NC(C)c3ccc(C(F)(F)F)nn3)ncnc12` (single isomer, unassigned) [Example 170, 6-(5-fluoro-2-pyridyl)-8-methoxy-N-[1-[6-(trifluoromethyl)pyridazin-3-yl]ethyl]quinazolin-4-amine], 316 to 3160 nM.
Consider `Cc1cnc(-c2cc(OC3CCOCC3)c3ncnc(NC(C)c4nnc(C)s4)c3c2)s1` (single isomer, unassigned) [Example 171, N-[1-(5-methyl-1,3,4-thiadiazol-2-yl)ethyl]-6-(5-methylthiazol-2-yl)-8-tetrahydropyran-4-yloxy-quinazolin-4-amine], for which the IC50 lay within 316 to 3160 nM.
For the molecule `Cc1cnc(-c2cc(OC3CCOCC3)c3ncnc(NC(C)c4nnc(C)s4)c3c2)s1` (single isomer, unassigned) [Example 172, N-[1-(5-methyl-1,3,4-thiadiazol-2-yl)ethyl]-6-(5-methylthiazol-2-yl)-8-tetrahydropyran-4-yloxy-quinazolin-4-amine], the 50% inhibitory concentration (IC50) is below 316 nM.
`COc1cc(-c2ccc(F)cn2)cc2c(NC(C)c3nc(C)no3)ncnc12` (single isomer, unassigned) [Example 175, 6-(5-fluoropyridin-2-yl)-8-methoxy-N-(1-(3-methyl-1,2,4-oxadiazol-5-yl)ethyl)quinazolin-4-amine] returned an IC50 of 316 to 3160 nM.
Take `COc1cc(-c2ccc(F)cc2)cc2c(NC(C)c3nc(-c4ccncc4)no3)ncnc12` (single isomer, unassigned) [Example 192, 6-(4-fluorophenyl)-8-methoxy-N-(1-(3-(pyridin-4-yl)-1,2,4-oxadiazol-5-yl)ethyl)quinazolin-4-amine]: the IC50 lay in the range of 3160 to 31600 nM.
Same read-out and setting: as for `Cc1nnc([C@@H](C)Nc2ncnc3c(S(=O)(=O)N(C)C)cc(-c4ccc(F)cc4)cc23)s1` (stereo in doubt) [Example 12, 6-(4-fluorophenyl)-N,N-dimethyl-4-((1-(5-methyl-1,3,4-thiadiazol-2-yl)ethyl)amino)quinazoline-8-sulfonamide], the figure is below 316 nM; as for `COc1cc(-c2ccc(F)cc2)cc2c(NC(C)c3cccc(=O)[nH]3)ncnc12` (stereo not shown) [Example 1, 6-(1-((6-(4-Fluorophenyl)-8-methoxyquinazolin-4-yl)amino)ethyl)pyridin-2(1H)-one], below 316 nM.
Same read-out and setting: the same measure for `COc1cc(-c2ncc(F)cn2)cc2c(NC(C)c3nc(C)no3)ncnc12` (stereo not shown) [Example 3, 6-(5-fluoropyrimidin-2-yl)-8-methoxy-N-(1-(3-methyl-1,2,4-oxadiazol-5-yl)ethyl)quinazolin-4-amine]: 316 to 3160 nM.
The molecule `COc1cc(-c2ncc(F)cn2)cc2c(N[C@H](C)c3ccc(C)nn3)ncnc12` [Example 4] came in with an IC50 of 316 to 3160 nM.

The same test, now with this note: range of activity; inhibition of P2X3 current evoked by 800 nM α,β-MeATP, 10 min antagonist preincubation; comparative examples.
In the case of `Cc1ccc(COc2ncnc3ncc(-c4ccc(F)cc4)cc23)cn1` [Comparative Example A, 6-(4-fluorophenyl)-4-[(6-methyl-3-pyridyl)methoxy]pyrido[2,3-d]pyrimidine, reference compound], the “h P2X3” value was “inactive”.

For the origin of these results see patent US12466820B2, “Amino quinazoline derivatives as P2X3 inhibitors” (CHIESI FARMACEUTICI S.p.A., priority 2019, dated 2025).
